{
  "source": "patent US20150299754A1",
  "about": "“STREPTOMYCES MICROFLAVUS STRAINS AND METHODS OF THEIR USE TO CONTROL PLANT DISEASES AND PESTS” (Bayer CropScience LP, priority 2014, published 2015)",
  "origin": "cited, not measured here",
  "key": {"[1]": {"tested_on": "powdery mildew", "details": "according to GB 1 507 193"}, "[2]": {"tested_on": "parasites on animals, such as pin worm", "details": "according to U.S. Pat. No. 3,849,398"}, "[3]": {"tested_on": "gram-positive, gram-negative bacteria and tubercule bacillus", "details": "according to U.S. Pat. No. 3,849,398"}},
  "data": [
    {"smiles": "NC(N)=NCC(O)CC(O)(C(=O)O)[C@H]1O[C@@H](n2cc(CO)c(N)nc2=O)C=C[C@@H]1NC(=O)[C@@H](N)CO", "note": "(stereo partly drawn) [B-98891]", "values": [
      {"measurement": "antifungal activity against powdery mildew", "setting": "[1]", "value": "antifungal activity"}
    ]},
    {"smiles": "CNCC(=O)NC(CO)C(=O)NC1C(C(N)=O)OC(n2ccc(N)nc2=O)C(O)C1O", "note": "(stereo not drawn) [gougerotin]", "values": [
      {"measurement": "parasiticidal action", "setting": "[2]", "value": "parasiticidal action"},
      {"measurement": "antibacterial activity", "setting": "[3]", "value": "weak antibacterial activity"}
    ]}
  ]
}
